Marks after values point to notes of the source that are not given here.
Tests used:
[1] = test system: cold restraint stress (CRS) - induced gastric ulcers; assay: Cold restraint stress (CRS) - induced ulcers in rats; assay type: in vivo; settings: dose 50
Method: 3. Cold restraint stress—induced ulcers: Rats were strapped on a wooden plank and kept them at 4-6° C. for 2 hours. The animals were then sacrificed by cervical dislocation and ulcers were scored on the dissected stomach.

[2] = test system: pylorus ligation (PL) - induced gastric ulcers; assay: Pylorus ligation (PL) - induced ulcers in rats; assay type: in vivo; settings: dose 50
Method: 4. Pylorus ligated induced ulcers: Animals were anaesthetized using pentobarbitione (35 mg/kg, i.p.), the abdomen was opened and pylorus ligation was done without causing any damage to its blood supply. The stomach was replaced carefully and the abdomen wall was closed in 2 layers with interrupted sutures. The animals were deprived of water during postoperative period. After 4 hours stomach were dissected out and contents were collected and ulcer index was calculated.

Q: What does the source list for `CNC(=C[N+](=O)[O-])NCCSCc1ccc(CN(C)C)o1` [Ranitidine]?
A: CRS - induced ulcers % Curative Ratio [1]: 79.68%; CRS - induced ulcers Ulcer Index ([1]; mean ± SEM, six rats): 5.2 ± 1.1^c; PL - induced ulcers % Curative Ratio [2]: 64.82%; PL - induced ulcers Ulcer Index ([2]; mean ± SEM, six rats): 5.1 ± 1.3^b
